The values below come from patent US10493064B2, “IBS microbiota and uses thereof” (priority 2014, dated 2019).

The structures appear in SMILES notation. Values after ≈ are worked out from the molar mass of the structure shown. Like-named read-outs stand apart in the source and are kept apart here. Some results are limits rather than exact numbers.

In one series the test system is C. difficile. Briefly: Susceptibility testing of stool culture isolates: C. difficile. In kind it is cell-based, Clostridium difficile.
For series [1], the system named is Staphylococcus isolates cultured from stool. Kind of series: Susceptibility (MIC) testing of stool culture isolates: Staphylococcus. In kind it is cell-based. The settings on record: end of Treatment 2 (OL) and end of Treatment 3 (DBR); returned to baseline in follow-up.
Series [2] in a line: Phase 3 repeat treatment study in IBS patients, infection rates. Type of series: in vivo, human. The following applies: following single or repeat treatment courses in IBS patients. On the procedure:
Subjects entered a Screening/Treatment 1 Phase which included a 10 (±3) day treatment, during which the subjects received single-blind placebo TID and completed a daily symptom diary. Following the Screening/Treatment 1 Phase, eligible subjects entered the Treatment 2 Phase and received open-label rifaximin 550 mg TID for 2 weeks with a 4 week treatment-free follow-up. At the end of the Treatment 2 Phase, subjects who achieved treatment success in both IBS-related abdominal pain and stool consistency during at least 2 weeks of the 4 week follow-up period were classified as responders and entered a treatment-free Maintenance Phase 1. Non-responders in the Treatment 2 Phase were withdrawn from the study to provide an enriched population of subjects who respond to treatment with rifaximin.
The treatment-free Maintenance Phase 1 varied in time (up to 18 weeks in total) and depended upon the time of symptom recurrence. […] Subjects with recurrence entered Treatment 3 Phase, also referred to as the Double-Blind (DB) Repeat Treatment Phase. In this phase, subjects were randomized 1:1 to receive either rifaximin 550 mg TID or placebo TID for 2 weeks with a 4-week treatment-free follow-up. All subjects from the Treatment 3 Phase then entered a 6-week maintenance phase (Maintenance Phase 2). […]

The test system of the next series is Bacteroides. Briefly: Susceptibility (MIC) testing of stool culture isolates: Bacteroides. In kind it is cell-based.
The test system of a further series is stool microbiota. Kind of series: 16S rRNA gene sequencing of stool microbiota in IBS-D subjects (richness, diversity, evenness, family abundance). In kind it is in vivo, human. The settings on record: for Shannon diversity: DB rifaximin group. The method, then:
Stool aliquots from the selected subjects were shipped frozen for genomic sequencing. The samples were thawed at the time of testing. DNA was extracted from stool. Next-generation sequencing technology (Illumina HiSeq2500) was used to sequence the V4 region of the 16S ribosomal RNA. In order to do this, a 286 base pair (bp) region was amplified […] first using Illumina's adapter information, and then a second round of demultiplexing was performed. Approximately 4.6 billion total ([…] paired ends) sequences were generated from the selected stool samples. […] There were 172 separate families identified from subjects randomly selected. […] This list also included families of bacteria that contained known pathogens. The Shannon Diversity Index was used to determine the diversity (which takes into account not only the number of bacterial families present, but also the relative abundance of those families) of the stool microbiota at each visit.

The test system of another series is Staphylococcus isolates. Kind of series: Broth microdilution susceptibility (MIC) testing of Staphylococcus isolates cultured from skin swabs. Type of series: cell-based. The settings on record: for resistance of S. aureus isolates: S. aureus isolates from skin swabs, OL or DB phases; for MIC: read-out: maximum MIC concentration observed; for changes in MIC90 values: return to baseline by end of study.

The test system of another series is S. aureus. Briefly: Skin swab culture for S. aureus in IBS-D subjects. Type of series: in vivo, human. The settings on record: OL or DB phases. The method, then: For the skin swab study, skin swab collection was performed for a subset of subjects (approximately 10% of the study population) at each of the following visits: Visits 3 and 4 (baseline and after two weeks of open-label rifaximin 550 mg TID [Treatment 2], respectively), Visits 6 and 7 (prior to and immediately after two weeks of double-blind retreatment [Treatment 3] with rifaximin 550 mg TID or placebo), and Visit 11 (End of Study). For each subject in this study, skin swabs were collected from the peri-rectum, nares, palms of hands, and forearms, and swabs were shipped immediately to the microbiology laboratory at ambient temperature in media-containing tubes. Skin swab cultures were conducted to isolate all Staphylococcus species.
Upon receipt at the microbiology laboratory, each skin swab was plated onto tryptic soy agar containing 5% sheep's blood and Columbia-colistin nalidixic acid agar with 5% sheep's blood to select for Gram-positive colonies. […] The inoculated plates were incubated at 35° C. in a 5-7% CO2 incubator, with plates examined at 24 and 48 h for bacterial growth.

[3] abbreviates: skin swab, OL Week 2, following rifaximin treatment.
Setting [4] is: skin swab, OL follow-up Week 7 to Week 10.
The mark [5] stands for this setting: skin swab, OL follow-up Week 11 to Week 14.

For `CO[C@H]1/C=C/O[C@@]2(C)Oc3c(C)c(O)c4c(O)c(c5c(nc6cc(C)ccn65)c4c3C2=O)NC(=O)/C(C)=C\C=C\[C@H](C)[C@H](O)[C@@H](C)[C@@H](O)[C@@H](C)[C@H](OC(C)=O)[C@@H]1C` [rifaximin], the susceptibility result in the series on C. difficile (all C. difficile cultured from stool) is on record as “highly susceptible”. Further, the “resistance of C. difficile isolates” value in the series on C. difficile (isolates identified in stool samples) is listed as “none of these isolates demonstrated rifaximin resistance”. In series [1], the “change in MIC values” is listed as “Transient increases”. Moreover, the infection rates result in series [2] is “no increased infection rates”. Besides, in the series on Bacteroides, the “increases in the MIC50 or MIC90” value was “within the range of MICs reported both at baseline”. In addition, the “evenness in the microbiota” value with stool microbiota (DB phase) is “unchanged”. Also, the “richness of the microbiota” value in the series on stool microbiota (DB phase, rifaximin treated subjects, Week 2, reversed in follow-up) is given as “decreased”. Besides, the Shannon diversity in the series on stool microbiota (after the 2 week treatment period) amounted to 1.698; with stool microbiota (baseline of DB phase), 1.786. Also, the “decrease in richness of the microbiota” value in the series on stool microbiota (OL phase, baseline to Week 2) is 1.235 families. Besides, the “change in Shannon diversity of the stool microbiota” value with stool microbiota (OL phase, rifaximin 550 mg TID 2 weeks) is given as “no substantial change”. Besides, in the series on stool microbiota (OL phase, rifaximin treatment), the “evenness of the microbiota” value is “not affected”. Also, the “resistance of S. aureus isolates” value with Staphylococcus isolates is on record as “no S. aureus isolates showed resistance”. The MIC90 (usually the lowest concentration that inhibits either 90% of growth or 90% of the strains tested, depending on the study) was found to be 0.03 µg/mL (≈ 0.0382 µM) in the series with Staphylococcus isolates (Staphylococcus, 24 h, skin swab isolates, DB phase Day 1 (Treatment 3), subjects randomized to placebo); 0.03 µg/mL (≈ 0.0382 µM) in the series on Staphylococcus isolates (Staphylococcus, 24 h, skin swab isolates, DB phase Day 1, subjects randomized to rifaximin); 0.03 µg/mL (≈ 0.0382 µM) with Staphylococcus isolates (Staphylococcus, 24 h, skin swab staphylococcal isolates, OL phase, Treatment 2 visit (Day 1), prior to rifaximin); 32 µg/mL (≈ 40.7 µM) in the series with Staphylococcus isolates (Staphylococcus, 336 h, skin swab isolates, OL phase, EOT2 Visit (Week 2), after rifaximin 550 mg TID 2 weeks); 32 µg/mL (≈ 40.7 µM) against Staphylococcus isolates (Staphylococcus, skin swab isolates, DB rifaximin subjects, EOT3 Visit (Week 2)); 0.5 µg/mL (≈ 0.636 µM) in the series on Staphylococcus isolates (Staphylococcus, skin swab isolates, DB rifaximin subjects, Week 15 to Week 22). The MIC90 with Staphylococcus isolates (Staphylococcus, skin swab isolates, DB rifaximin subjects, between Week 11 and Week 14) was 64 µg/mL (≈ 81.4 µM); with Staphylococcus isolates (Staphylococcus, skin swab isolates, DB rifaximin subjects, between Week 23 and Week 38), 0.06 µg/mL (≈ 0.0763 µM); in the series with Staphylococcus isolates (Staphylococcus, skin swab isolates, OL Last Assessment Visits, Weeks 7 to 10), 2 µg/mL (≈ 2.54 µM); against Staphylococcus isolates (Staphylococcus, skin swab isolates, OL Last Assessment Visits, from Week 11 onward), 0.03 µg/mL (≈ 0.0382 µM). For the same compound, the MIC50 (as a rule, the lowest concentration that inhibits either 50% of growth or 50% of the strains tested, depending on the study) is 0.015 µg/mL (≈ 0.0191 µM) with Staphylococcus isolates (Staphylococcus, 24 h, skin swab staphylococcal isolates, OL phase, Treatment 2 visit (Day 1), prior to rifaximin, read-out: MIC50); 0.015 µg/mL (≈ 0.0191 µM) in the series with Staphylococcus isolates (Staphylococcus, 336 h, skin swab isolates, OL phase, EOT2 Visit (Week 2), after rifaximin 550 mg TID 2 weeks, read-out: MIC50); 0.015 to 0.06 µg/mL (≈ 0.0191 to 0.0763 µM) with Staphylococcus isolates (Staphylococcus, skin swab isolates, DB rifaximin subjects, DB Last Assessment Visits, read-out: MIC50); 0.015 µg/mL (≈ 0.0191 µM) in the series on Staphylococcus isolates (skin swab isolates, DB phase Day 1 (Treatment 3), subjects randomized to placebo); 0.015 µg/mL (≈ 0.0191 µM) against Staphylococcus isolates (skin swab isolates, DB phase Day 1, subjects randomized to rifaximin). Moreover, the MIC in the series on Staphylococcus isolates (Staphylococcus, skin swab isolates, OL Last Assessment Visits, after decrease with time off rifaximin) is 0.06 µg/mL (≈ 0.0763 µM); in the series on Staphylococcus isolates (Staphylococcus, skin swab isolates, OL Last Assessment Visits, before decrease with time off rifaximin) it was 64 µg/mL (≈ 81.4 µM). Moreover, the “changes in MIC50 values” in the series on Staphylococcus isolates (skin swab staphylococcal isolates, overall with rifaximin treatment) is on record as “no changes”. The “changes in MIC90 values” with Staphylococcus isolates (skin swab staphylococcal isolates, overall) is reported as “Transient changes”. Also, the “change in the number of S. aureus isolates” value in the series with S. aureus was “no increase”.

For `O=C(O)c1cn(C2CC2)c2cc(N3CCNCC3)c(F)cc2c1=O` [ciprofloxacin], the “resistance of Staphylococcus isolates” value with Staphylococcus isolates (some skin swab isolates, did not substantially change with rifaximin treatment or time) is recorded as “low levels of resistance”.

As to `CO[C@H]1/C=C/O[C@@]2(C)Oc3c(C)c(O)c4c(O)c(c(/C=N/N5CCN(C)CC5)c(O)c4c3C2=O)NC(=O)/C(C)=C\C=C\[C@H](C)[C@H](O)[C@@H](C)[C@@H](O)[C@@H](C)[C@H](OC(C)=O)[C@@H]1C` [rifampin], in series [1], the “change in MIC values” was “Transient increases”. The “changes in MIC50 values” in the series with Staphylococcus isolates is recorded as “no changes”. For the same compound, the resistant isolates with Staphylococcus isolates (DB placebo treated subjects, Day 1, peri-rectum) was 1 isolates; in the series on Staphylococcus isolates (DB placebo treated subjects, Week 2, peri-rectum), 2 isolates; in the series with Staphylococcus isolates (DB placebo treated subjects, treatment period, all from peri-rectum), 3 isolates; with Staphylococcus isolates (skin swab, OL follow-up Week 15 to Week 32) it was “No rifampin resistant isolates”. For the same compound, the “isolates with MIC value of ≥4 μg/mL” value in the series with Staphylococcus isolates (OL Last Assessment Visits between Week 7 and Week 32, […]) is given as 16 isolates. Further, the “resistance of S. aureus isolates” value in the series with Staphylococcus isolates was “no S. aureus isolates showed resistance”. Moreover, the MIC90 was at most 0.015 µg/mL in the series with Staphylococcus isolates (Staphylococcus, 24 h, […], DB placebo subjects, all Visits from Day 1 to DB Last Assessment); at most 0.015 µg/mL in the series with Staphylococcus isolates (Staphylococcus, 24 h, […], OL phase, Treatment 2 visit (Day 1), prior to rifaximin); 16 µg/mL (≈ 19.4 µM) with Staphylococcus isolates (Staphylococcus, 336 h, […], OL phase, EOT2 Visit (Week 2), after rifaximin 550 mg TID 2 weeks); 0.5 µg/mL (≈ 0.608 µM) against Staphylococcus isolates (Staphylococcus, […], OL Last Assessment Visits, Weeks 7 to 10); at most 0.015 µg/mL against Staphylococcus isolates (Staphylococcus, […], OL Last Assessment Visits, from Week 11 onward). For the same compound, the MIC50 in the series with Staphylococcus isolates (Staphylococcus, 24 h, […], OL phase, Treatment 2 visit (Day 1), prior to rifaximin, read-out: MIC50) was at most 0.015 µg/mL; with Staphylococcus isolates (Staphylococcus, 336 h, […], OL phase, EOT2 Visit (Week 2), after rifaximin 550 mg TID 2 weeks, read-out: MIC50), at most 0.015 µg/mL; against Staphylococcus isolates ([…], DB placebo subjects, all Visits from Day 1 to DB Last Assessment) it was at most 0.015 µg/mL. This compound also had an MIC range with Staphylococcus isolates ([…], OL phase, Day 1 of Treatment 2) of 0.015 to 0.12 µg/mL. Besides, the “changes in MIC90 values” in the series on Staphylococcus isolates ([…]) is given as “Transient changes”. Also, in the series with Staphylococcus isolates (skin swab, OL Week 2), the “resistant isolates cultured from the left lower arm swabs” value is 3 isolates. The “resistant isolates cultured from the palms of the hands” value in the series with Staphylococcus isolates (skin swab, OL Week 2) came to 4 isolates. Further, in the series with Staphylococcus isolates (skin swab, OL Week 2), the “resistant isolates on the peri-rectum” value was determined as 32 isolates. The “isolates with a MIC value ≥4 μg/mL (resistant)” value in the series with Staphylococcus isolates (setting [3]) worked out at 39 isolates. The “isolates with an MIC value of <4 μg/mL (susceptible)” value with Staphylococcus isolates (setting [3]) was 297 isolates. Also, the entries for the “resistant isolates (count)” value with Staphylococcus isolates (setting [4]) and in the series with Staphylococcus isolates (setting [5]) were “Seven” and 7 isolates, respectively. Besides, the figures for the “resistant isolates, % of isolates” value with Staphylococcus isolates (setting [4]) and in the series on Staphylococcus isolates (setting [5]) were 9.5% and 2.8%, respectively.
